Experimental data published in patent US20200163857A1, “Dual Component Compositions for Teeth Whitening” (Colgate-Palmolive Company, priority 2018, published 2020).

Experiments:
[1] = pH-dependent bleaching of Lissamine green B by NaDCC
Procedure: Two different solutions, Solution A and Solution B, were prepared. Solution A contained 2% SAPP, 0.1% Lissamine green B dye, and 97.9% water. Solution B contained 2% tetrasodium pyrophosphate (TSPP), 0.1% Lissamine green B dye, and 97.9% water. Next, solutions with various pHs were obtained by mixing the two different solutions A and B, in different volume ratios (i.e., 1:0, 1:5, 1:1, 5:1, and 0:1). 20 mL of the resulting solutions were added to 10 mg NaDCC, and the time required to bleach away all of the Lissamine green B color was recorded.

[2] = test system: bacterial viability of stimulated saliva samples; assay: Salivary ATP bacteria viability assay (luciferase); type: cell-based; details: one-minute treatment; for Log10 of Viability, Mean: average of two experiments
Excerpt: In order to screen for preliminary antibacterial efficacy, a NaDCC solution was subjected to an ATP-bacteria viability test. This method determines the number of viable bacterial cells in culture based on the quantification of adenosine triphosphate (ATP) present. ATP is a product of the catabolism of glucose (glycolysis) and aerobic respiration. This essential nucleoside triphosphate powers virtually all cell functions and is used by bacteria during cell division, the synthesis of nucleic acids and proteins, the transport of macromolecules, cell signaling, and bacterial motility. Given its importance, ATP signals the presence of metabolically active cells, and therefore it may be used to quantify cell viability.
In a reaction, luciferin is converted to oxiluciferin by the luciferase enzyme in the presence of ATP and oxygen. A direct relationship exists between the light output of the reaction and the number of metabolically active cells that makes this method ideal for the rapid screening of antimicrobial agents during the development of oral care formulas to establish their potential antibacterial efficacy. A salivary ATP assay was used to evaluate the antibacterial efficacy of NaDCC-containing tablets on bacterial viability of stimulated saliva samples.
In this assay, a mouthwash solution containing 0.075% cetylpyridinium chloride (CPC), a known antibacterial agent, was used as a positive control. An NaDCC tablet containing only NaDCC and weighing 20 mg was disintegrated in two phosphate buffered saline (PBS) solutions to yield both a 500 ppm NaDCC solution and a 1000 ppm NaDCC solution. […] Lower viability translates into higher antibacterial properties. The data below in Table 4 was calculated using the Tukey Method with a 95% Confidence Interval for the mean.

Structure (SMILES) | Time to bleach ([1]; 10 mg NaDCC in 20 mL Mix Solution 1, VA:VB 1:0, pH 4.6) | Time to bleach ([1]; 10 mg NaDCC in 20 mL Mix Solution 2, VA:VB 1:5, pH 5.8) [min] | Time to bleach ([1]; 10 mg NaDCC in 20 mL Mix Solution 3, VA:VB 1:1, pH 7.4) [min] | Time to bleach ([1]; 10 mg NaDCC in 20 mL Mix Solution 4, VA:VB 5:1, pH 8.8) [min] | Time to bleach ([1]; 10 mg NaDCC in 20 mL Mix Solution 5, VA:VB 0:1, pH 10.5) [min] | Log10 of Viability, Mean ([2]; 500 ppm NaDCC in PBS) | Log10 of Viability, Mean ([2]; 1000 ppm NaDCC in PBS) | antibacterial properties compared to the 0.075% CPC solution ([2]; NaDCC solutions at both 500 ppm and 1000 ppm in PBS) | Log10 of Viability, Mean ([2]; 0.075% CPC mouthwash solution (positive control))
O=c1nc(O)n(Cl)c(=O)n1Cl [NaDCC, sodium dichloroisocyanurate] | Instantaneous | 0.25 | 8 | 35 | 80 | 4.139 ± 0.001 | 3.530 ± 0.048 | statistically significant improvement | –
CCCCCCCCCCCCCCCC[n+]1ccccc1 [CPC, cetylpyridinium chloride, reference compound] | – | – | – | – | – | – | – | – | 5.061 ± 0.032
